Measured values: patent US10611766B2, “Pyrazolopyrimidine derivatives as BTK inhibitors for the treatment of cancer” (Loxo Oncology, Inc., priority 2015, dated 2020)

Tested on: OCI-Ly10 human DLBCL cells
Assay: OCI-Ly10 anti-proliferative activity (Resazurin, 72 h)
Format: cell-based
Conditions: read-out: Proliferation OCI-Ly10-IC50
Protocol: Compounds were assayed for effects on the growth of OCI-Ly10 human DLBCL cells that are dependent on NFκB signalling. OCI-Ly10 cells were grown in suspension in T225 flasks, centrifuged and re-suspended in 2.5% FBS containing media. Cells were then plated at 7.5×10^3 cells per well in 96-well plates in varying concentrations of compound and incubated for 72 h at 37° C. An additional plate of cells to be used as the Day 0 read was seeded without compound addition, Resazurin was added to each well, incubated for 5 h and the fluorescence measured at 590 nm. After 72 h of compound treatment, Resazurin was added to each well of the compound treated plates, incubated for 5 h and the fluorescence measured at 590 nm. The IC50 was then calculated by subtracting the average Day 0 value from each well value from the treated plates, each treatment was then calculated as a percentage of the DMSO control and the percentages plotted against the inhibitor concentration to estimate the IC50 from log [Inhibitor] vs response using the Variable Slope model in Graphpad prism from Graphpad software (SanDiego, Calif.).

IC50: 0.01 to 0.1 µM
Structure (SMILES): COc1ccccc1C(=O)NCc1ccc(-c2nn(C3CCC(C(=O)N(C)C)CC3)c3ncnc(N)c23)cc1 (single isomer, unassigned; isomer 1) [33-isomer 1]
